Data on one compound can be found in paper PMC2000878, “Module structure of interphotoreceptor retinoid-binding protein (IRBP) may provide bases for its complex role in the visual cycle – structure/function study of Xenopus IRBP” (BMC Biochemistry, 2007).

One assay deals with T1, Xenopus IRBP Module 4 (Xenopus laevis, UniProt Q7SZI7).
T1 construct: cDNAs corresponding to the full-length IRBP, module 1, and module 2 were expressed in pThioHis; modules 3 and 4 were expressed in pTrxFus; made in house; host or cells: E. coli GI724 / GI698 (pTrxFus)
T1 sequence (Q7SZI7 923-1219): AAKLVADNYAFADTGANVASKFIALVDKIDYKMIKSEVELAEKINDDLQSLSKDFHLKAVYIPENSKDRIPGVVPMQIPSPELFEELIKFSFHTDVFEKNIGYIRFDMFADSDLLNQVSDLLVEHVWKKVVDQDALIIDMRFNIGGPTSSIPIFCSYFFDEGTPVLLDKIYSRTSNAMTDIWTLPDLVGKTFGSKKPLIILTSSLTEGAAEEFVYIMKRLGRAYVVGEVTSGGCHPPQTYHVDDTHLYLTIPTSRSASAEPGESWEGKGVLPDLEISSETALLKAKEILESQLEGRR
Put plainly: Fluorometric titration (enhancement, quenching). Format: binding. The text has this: (§1) Enhancement of retinol fluorescence and quenching of the intrinsic protein fluorescence were used to monitor binding of all-trans retinol to the recombinant IRBPs. We previously derived an equation that is generally useful for describing such quantum yield changes that are consequent upon ligand binding. This equation has been previously applied to the analysis of binding by monitoring the enhancement of retinol fluorescence. In this case, where excitation is at 330 nm and emission is monitored at 480, the fluorescence enhancement (Fenh) depends on the total retinol concentration (Rt), the dissociation constant (Kd ^all-trans), the number of retinol-binding sites per protein molecule (N) and the total protein concentration (Pt).
(§2) Assuming that there is a single type of noninteracting site on the protein, (Fenh) is expected to be linearly related to the concentration of bound retinol molecules. Fenh is given by the relation
(§3) Fenh=C1+C2[Rtall−trans−(Rtall−trans+NPt+Kdall−trans)^2−4NPtRtall−trans] MathType@MTEF@5@5@+=feaafiart1ev1aaatCvAUfKttLearuWrP9MDH5MBPbIqV92AaeXatLxBI9gBaebbnrfifHhDYfgasaacH8akY=wiFfYdH8Gipec8Eeeu0xXdbba9frFj0=OqFfea0dXdd9vqai=hGuQ8kuc9pgc9s8qqaq=dirpe0xb9q8qiLsFr0=vr0=vr0dc8meaabaqaciaacaGaaeqabaqabeGadaaakeaacqWGgbGrdaWgaaWcbaGaemyzauMaemOBa4MaemiAaGgabeaakiabg2da9iabdoeadnaaBaaaleaacqaIXaqmaeqaaOGaey4kaSIaem4qam0aaSbaaSqaaiabikdaYaqabaGcdaWadaqaaiabdkfasnaaDaaaleaacqWG0baDaeaacqWGHbqycqWGSbaBcqWGSbaBcqGHsislcqWG0baDcqWGYbGCcqWGHbqycqWGUbGBcqWGZbWCaaGccqGHsisldaGcaaqaamaabmaabaGaemOuai1aa0baaSqaaiabdsha0bqaaiabdggaHjabdYgaSjabdYgaSjabgkHiTiabdsha0jabdkhaYjabdggaHjabd6gaUjabdohaZbaakiabgUcaRiabd6eaojabdcfaqnaaBaaaleaacqWG0baDaeqaaOGaey4kaSIaem4saS0aa0baaSqaaiabdsgaKbqaaiabdggaHjabdYgaSjabdYgaSjabgkHiTiabdsha0jabdkhaYjabdggaHjabd6gaUjabdohaZbaaaOGaayjkaiaawMcaamaaCaaaleqabaGaeGOmaidaaOGaeyOeI0IaeGinaqJaemOta4Kaemiuaa1aaSbaaSqaaiabdsha0bqabaGccqWGsbGudaqhaaWcbaGaemiDaqhabaGaemyyaeMaemiBaWMaemiBaWMaeyOeI0IaemiDaqNaemOCaiNaemyyaeMaemOBa4Maem4CamhaaaqabaaakiaawUfacaGLDbaaaaa@8490@
(§4) The equation was fit to the data by nonlinear least-squares analysis. To follow the quenching of the protein's intrinsic fluorescence the excitation and emission wavelengths were set to 280 nm and 340 nm, respectively, while the protein was titrated with all-trans retinol. For the quenching studies the inner filter effect was accounted for by graphical correction as previously described. Fluorescence measurements were made using an SLM 8000TM C photon counting spectrofluorometer corrected for wavelength dependence of source energy and detector response.

Another assay concerns the target T2, Xenopus IRBP Module 3 (Xenopus laevis, UniProt Q7SZI7).
T2 construct: cDNAs corresponding to the full-length IRBP, module 1, and module 2 were expressed in pThioHis; modules 3 and 4 were expressed in pTrxFus; made in house; host or cells: E. coli GI724 / GI698 (pTrxFus)
Put plainly: Fluorometric titration (enhancement, quenching). Format: binding.
Source text: as §1, §2, §3, §4

The next assay deals with T3, Xenopus IRBP Module 2 (Xenopus laevis, UniProt Q7SZI7).
T3 construct: cDNAs corresponding to the full-length IRBP, module 1, and module 2 were expressed in pThioHis; modules 3 and 4 were expressed in pTrxFus; made in house; host or cells: E. coli Top10 (pThioHis)
T3 sequence (Q7SZI7 319-617 limits assumed): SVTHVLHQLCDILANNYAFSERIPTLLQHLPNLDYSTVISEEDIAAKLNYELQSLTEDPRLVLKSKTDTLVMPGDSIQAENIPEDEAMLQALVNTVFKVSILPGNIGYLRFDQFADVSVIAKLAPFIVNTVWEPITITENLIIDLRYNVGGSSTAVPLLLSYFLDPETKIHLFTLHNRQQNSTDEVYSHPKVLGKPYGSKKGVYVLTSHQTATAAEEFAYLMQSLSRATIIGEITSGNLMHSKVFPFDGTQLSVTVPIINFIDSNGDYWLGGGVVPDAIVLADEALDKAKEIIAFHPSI
Also noted: method as in Loew et al. Exp Eye Res. 2001, 73:257–264. The settings on record: ref Loew et al. Exp Eye Res. 2001, 73:257–264, cited from earlier work.

Another assay concerns the target T4, full-length Xenopus IRBP (Xenopus laevis, UniProt Q7SZI7).
T4 construct: We expressed the full-length IRBP as well as its individual modules as thioredoxin-fusion proteins using pTrxFus and pThioHis vectors; made in house; host or cells: E. coli Top10 (pThioHis)
Put plainly: Fluorometric titration (ligand fluorescence enhancement, protein quenching, energy transfer). It counts as binding.
Source text: The binding parameters of retinoid-binding proteins including IRBP may be determined by fluorescence spectroscopy. The method utilizes changes in quantum yield occurring during ligand binding. Such changes are represented by enhancement of ligand fluorescence, quenching of intrinsic protein fluorescence, and transfer of energy from protein to bound ligand. Fluorescence enhancement occurs if the quantum yield of the ligand's fluorescence is higher in the hydrophobic environment of the ligand-binding domain compared to that outside of the domain.
[…] We previously derived an equation that is generally useful for describing such quantum yield changes that are consequent upon ligand binding. This equation has been previously applied to the analysis of binding by monitoring the enhancement of retinol fluorescence. In this case, […], the fluorescence enhancement (Fenh) depends on the total retinol concentration (Rt), the dissociation constant (Kd ^all-trans), the number of retinol-binding sites per protein molecule (N) and the total protein concentration (Pt).
as §2, §3
The equation was fit to the data by nonlinear least-squares analysis. […] For the quenching studies the inner filter effect was accounted for by graphical correction as previously described. Fluorescence measurements were made using an SLM 8000TM C photon counting spectrofluorometer corrected for wavelength dependence of source energy and detector response.

For a further assay, the target named is Xenopus IRBP Module 1 (Xenopus laevis, UniProt Q7SZI7). The assay is described as follows: Fluorometric titration (enhancement, quenching). It counts as binding. Also noted: cDNAs corresponding to the full-length IRBP, module 1, and module 2 were expressed in pThioHis; modules 3 and 4 were expressed in pTrxFus; made in house; host or cells: E. coli Top10 (pThioHis).
Xenopus IRBP Module 1, sequence (Q7SZI7 23-315): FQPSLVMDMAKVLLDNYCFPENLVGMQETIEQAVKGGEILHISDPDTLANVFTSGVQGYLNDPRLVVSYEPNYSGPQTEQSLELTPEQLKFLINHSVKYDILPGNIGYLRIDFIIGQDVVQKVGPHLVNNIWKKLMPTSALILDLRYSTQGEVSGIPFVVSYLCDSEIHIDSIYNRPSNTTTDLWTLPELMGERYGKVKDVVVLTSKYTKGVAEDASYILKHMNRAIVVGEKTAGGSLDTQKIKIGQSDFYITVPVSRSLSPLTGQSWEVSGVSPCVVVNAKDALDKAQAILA
Source text: as §1, §2, §3, §4

The mark [1] stands for this setting: 9-AS fluorescence enhancement, ex 360 nm, em 440 nm.
[2] abbreviates: 9-AS fluorescence enhancement, ex 360 nm, em 440 nm, read-out: Kd, Enhancement.
The mark [3] stands for this setting: quenching by 9-AS, ex 280 nm, em 340 nm.
Where [4] appears, read: quenching by 9-AS, ex 280 nm, em 340 nm, read-out: Kd, Quenching.

Structures are written as SMILES. Like-named read-outs stand apart in the source and are kept apart here.

T2 sequence (Q7SZI7 616-922): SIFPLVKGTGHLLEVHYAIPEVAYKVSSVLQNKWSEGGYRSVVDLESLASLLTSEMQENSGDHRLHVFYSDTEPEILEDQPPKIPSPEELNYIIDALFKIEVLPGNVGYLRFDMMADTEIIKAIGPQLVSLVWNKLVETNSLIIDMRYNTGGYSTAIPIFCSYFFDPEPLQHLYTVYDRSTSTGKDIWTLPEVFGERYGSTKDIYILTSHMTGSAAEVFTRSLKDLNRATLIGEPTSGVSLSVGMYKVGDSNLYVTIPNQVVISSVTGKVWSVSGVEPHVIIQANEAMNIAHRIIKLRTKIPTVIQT
T4 sequence (Q7SZI7 23-1219): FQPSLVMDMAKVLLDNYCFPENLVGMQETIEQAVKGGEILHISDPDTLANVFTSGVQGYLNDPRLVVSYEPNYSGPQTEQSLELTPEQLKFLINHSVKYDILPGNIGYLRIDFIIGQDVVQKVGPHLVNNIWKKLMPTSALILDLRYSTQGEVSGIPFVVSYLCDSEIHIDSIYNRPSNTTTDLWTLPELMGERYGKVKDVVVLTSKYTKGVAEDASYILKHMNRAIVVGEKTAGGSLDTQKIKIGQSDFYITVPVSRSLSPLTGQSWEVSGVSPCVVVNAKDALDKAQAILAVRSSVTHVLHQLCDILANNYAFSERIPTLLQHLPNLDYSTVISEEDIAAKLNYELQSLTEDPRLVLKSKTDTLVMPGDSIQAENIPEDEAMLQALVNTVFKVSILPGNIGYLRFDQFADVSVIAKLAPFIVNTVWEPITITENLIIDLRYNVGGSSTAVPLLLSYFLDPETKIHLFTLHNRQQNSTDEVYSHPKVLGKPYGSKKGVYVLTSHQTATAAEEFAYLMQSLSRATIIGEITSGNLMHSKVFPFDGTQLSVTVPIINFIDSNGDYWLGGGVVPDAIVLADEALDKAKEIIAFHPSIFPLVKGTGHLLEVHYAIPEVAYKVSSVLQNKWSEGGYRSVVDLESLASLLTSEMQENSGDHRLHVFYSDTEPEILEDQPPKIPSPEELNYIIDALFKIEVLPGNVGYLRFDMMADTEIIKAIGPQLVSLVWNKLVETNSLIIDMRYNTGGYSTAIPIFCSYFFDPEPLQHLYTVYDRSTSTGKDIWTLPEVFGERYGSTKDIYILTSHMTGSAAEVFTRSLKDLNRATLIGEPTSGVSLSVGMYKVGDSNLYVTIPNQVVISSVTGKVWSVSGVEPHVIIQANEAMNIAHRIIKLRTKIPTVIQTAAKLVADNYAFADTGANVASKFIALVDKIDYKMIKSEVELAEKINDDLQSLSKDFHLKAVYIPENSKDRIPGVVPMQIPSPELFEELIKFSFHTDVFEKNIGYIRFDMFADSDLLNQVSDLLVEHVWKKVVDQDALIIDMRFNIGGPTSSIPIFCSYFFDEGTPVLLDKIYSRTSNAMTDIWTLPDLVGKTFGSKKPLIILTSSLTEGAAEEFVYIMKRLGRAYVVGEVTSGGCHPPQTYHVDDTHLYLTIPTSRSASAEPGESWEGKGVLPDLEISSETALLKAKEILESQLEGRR

As a reminder, the Kd is the constant that tells how readily two partners part at equilibrium. Take `CCCCCCCCCC(CCCCCCCC(=O)O)OC(=O)c1c2ccccc2cc2ccccc12` (centres unmarked) [9-AS, 9-(9-anthroyloxy) stearic acid]: the “Binding sites (N), Enhancement” value on Xenopus IRBP Module 4 (setting [1]) was 2.23 ± 0.09; at Xenopus IRBP Module 3 (setting [1]), 2.76 ± 0.09; on Xenopus IRBP Module 2 (setting [1]), 1.49 ± 0.15; at full-length Xenopus IRBP (setting [1]), 2.58 ± 0.17; at Xenopus IRBP Module 1 (setting [1]), 2.55 ± 0.24. Further, the Kd at Xenopus IRBP Module 4 (setting [2]) is 82 ± 37 nM; at Xenopus IRBP Module 4 (setting [4]), 160 ± 40 nM; at Xenopus IRBP Module 3 (setting [2]) it was 160 ± 410 nM; at Xenopus IRBP Module 3 (setting [4]) it was 190 ± 30 nM; at Xenopus IRBP Module 2 (setting [2]), 250 ± 80 nM; on Xenopus IRBP Module 2 (setting [4]) it was 130 ± 20 nM. Moreover, the Kd at full-length Xenopus IRBP (setting [2]) was found to be 280 ± 70 nM; on full-length Xenopus IRBP (quenching of protein fluorescence by 9-AS, ex 280 nm, em 340 nm, read-out: Kd, Quenching), 290 ± 110 nM; on Xenopus IRBP Module 1 (setting [2]), 330 ± 150 nM; on Xenopus IRBP Module 1 (setting [4]), 420 ± 100 nM. Also, the “Binding sites (N), Quenching” value at Xenopus IRBP Module 4 (setting [3]) was 0.30 ± 0.09; at Xenopus IRBP Module 3 (setting [3]), 1.06 ± 0.07; at Xenopus IRBP Module 2 (setting [3]), 0.93 ± 0.06; on full-length Xenopus IRBP (quenching of protein fluorescence by 9-AS, ex 280 nm, em 340 nm) it was 0.18 ± 0.29; at Xenopus IRBP Module 1 (setting [3]), 0.97 ± 0.19.
